In patent US5750523A, “Pyridazinone derivatives” (Nissan Chemical Industries, Ltd., priority 1994, dated 1998):
Counter-ions that a name gives are not always drawn. Like-named read-outs stand apart in the source and are kept apart here.

Tests used:
[1] = test system: Rabbit PRP (platelet aggregation); assay: Antiplatelet aggregation effect, rabbit platelet rich plasma (PRP); assay type: cell-based, male Japanese white rabbits; conditions: 37° C., 2 minutes incubation, Table III
Description: (§1) Blood was collected from the abdominal aortae of male Wister rats (weight: 200 to 300 g) or male Japanese white rabbits (weight: 1.8 to 2.5 kg) into a syringe containing 1/10 volume 3.8% sodium citrate. The blood thus obtained was centrifuged at 200×g for 7 minutes at room temperature to obtain platelet rich plasma (PRP). Furthermore, the residue was centrifuged at 2000×g for 10 minutes to obtain platelet poor plasma (PPP). The measurement was effected by diluting PRP and PPP to 300,000/mm^3. PRP and PPP were put in cuvettes, and the measurement range of transmittance was adjusted to 0% in the case of PRP and to 100% in the case of PPP. Thereafter, a test sample drug dissolved in 100% dimethyl sulfoxide (DMSO) was added to PRP (the final concentration of DMSO: 0.25%). After incubation at 37° C. and 900 rpm for 2 minutes, an aggregating agent was added to measure an aggregation curve. The antiplatelet aggregation effect of the test sample drug was expressed by a concentration, IC50 (μM), at which the aggregation of control sample was 50% inhibited. The aggregating agents ADP and collagen were used at minimum concentrations (ADP: 5 to 10 μM: collagen : 2.5 to 10 μg/ml) which caused maximum aggregation. The measurement of platelet aggregation was carried out by using NBS HEMA TRACER 601.
(§2) Tables II and III show antiplatelet aggregation effects of test compounds evaluated as IC50 values (μM).
As a comparative compound, the following compound disclosed in reference (d) was used. [drawing 20]

[2] = test system: rabbit thoracic aorta ring specimen; assay: Vasodilation effect, relaxation of phenylephrine contraction of rabbit thoracic aorta ring; conditions: Oryctolagus cuniculus; contraction by phenylephrine 10^-5 M; cumulative administration from 3×10^-9 M; papaverine hydrochloride 10^-4 M = 100%; Table IV
Description: By using a rabbit thoracic aorta ring specimen, the relaxation effect of a test sample drug on contraction by phenylephrine (10^-5 M) was evaluated. A test sample drug was administered cumulatively from a concentration of 3×10^-9 M, after the contraction became stable. The results were expressed on the basis that the relaxation effect of papaverine hydrochloride (10^-4 M) was 100%.
The comparative compound was the same as in Test Example 1.

[3] = test system: Rat PRP (platelet aggregation); assay: Antiplatelet aggregation effect, rat platelet rich plasma (PRP); assay type: cell-based, male Wister rats; conditions: 37° C., 2 minutes incubation, Table II
Description: as §1, §2

[4] = Oryctolagus cuniculus, Platelet, 2 min, aggregating agent ADP 5 to 10 μM, read-out: Rabbit PRP IC50, ADP
[5] = Oryctolagus cuniculus, Platelet, 2 min, aggregating agent collagen 2.5 to 10 μg/ml, read-out: Rabbit PRP IC50, Collagen
[6] = Rattus norvegicus, Platelet, 2 min, aggregating agent ADP 5 to 10 μM, read-out: Rat PRP IC50, ADP

Compound: O=C1CCc2cc(OCCCCc3nnnn3C3CCCCC3)ccc2N1 [Cilostazol, reference compound]
- IC50 [1, 4]: 15000 nM
- IC50 [1, 5]: 2400 nM

Compound: O=c1[nH]nc(OCCCc2ccc(Cl)cc2)c(NCc2cccnc2)c1Br [Comparative Compound, reference compound]
- IC50 [1, 4]: 81 nM
- IC50 [1, 5]: 17 nM
- EC50 [2]: 400 nM

Compound: O=c1[nH]nc(OCCC(O)c2ccc(Cl)cc2)c(NCc2cccnc2)c1Br (centres unmarked) [Compound No. 1, 4-bromo-6-[3-(4-chlorophenyl)-3-hydroxypropyloxy]-5-(3-pyridylylmethylamino)-3(2H)pyridazinone]
- IC50 [3, 6]: 230 nM
- IC50 ([3]; aggregating agent collagen 2.5 to 10 μg/ml, read-out: Rat PRP IC50, Collagen): 99 nM
- IC50 [1, 4]: 50 nM
- IC50 [1, 5]: 10 nM
- EC50 [2]: 1300 nM

Compound: COc1ccc(CNc2c(OCCC(O)c3ccc(Cl)cc3)n[nH]c(=O)c2Br)cc1OC (centres unmarked) [Compound No. 2, 4-bromo-6-[3-(4-chlorophenyl)-3-hydroxypropyloxy]-5-(3,4-dimethoxybenzylamino)-3(2H)pyridazinone]
- IC50 [3, 6]: 72 nM
- IC50 ([3]; Rattus norvegicus, Platelet, 2 min, aggregating agent collagen 2.5 to 10 μg/ml, read-out: Rat PRP IC50, Collagen): 190 nM
- IC50 [1, 4]: 41 nM
- IC50 [1, 5]: 20 nM

Compound: O=c1[nH]nc(OCCC(O)c2ccc(Cl)cc2)c(NCc2cccnc2)c1Br (centres unmarked) [Compound No. 65, 4-bromo-6-[3-(4-chlorophenyl)-3-hydroxypropyloxy]-5-(3-pyridylylmethylamino)-3(2H)pyridazinone hydrochloride]
- IC50 ([3]; aggregating agent ADP 5 to 10 μM, hydrochloride, read-out: Rat PRP IC50, ADP): 210 nM
- IC50 ([3]; aggregating agent collagen 2.5 to 10 μg/ml, hydrochloride, read-out: Rat PRP IC50, Collagen): 220 nM
- IC50 ([1]; aggregating agent ADP 5 to 10 μM, hydrochloride, read-out: Rabbit PRP IC50, ADP): 53 nM
- IC50 ([1]; aggregating agent collagen 2.5 to 10 μg/ml, hydrochloride, read-out: Rabbit PRP IC50, Collagen): 19 nM

Compound: O=c1[nH]nc(OCC[C@@H](O)c2ccc(Cl)cc2)c(NCc2cccnc2)c1Br [Compound No. 93, 4-bromo-6-[(3R)-3-(4-chlorophenyl)-3-hydroxylpropyloxy]-5-(3-pyridylylmethylamino)-3(2H)pyridazinone hydrochloride]
- IC50 [1, 4]: 47 nM
- IC50 [1, 5]: 9.7 nM
